biological target: p300 HAT domain (residues 1287-1666) (Homo sapiens (Human), UniProt Q09472); assay: p300 HAT SPA assay (scintillation proximity assay, acetylation of biotinylated H3(1-21) peptide); assay type: biochemical; conditions: P300 HAT SPA IC50, p300 HAT domain; average of at least 2 replicate titrations
Method: In a typical experiment the p300 HAT inhibitory activity of the compounds described herein was determined in accordance with the following experimental method.
The expressed protein was purified by Ni2+ affinity, followed by anion exchange chromatography. Appropriate fractions were pooled and buffer exchanged into 20 mM Hepes pH 7.5, 150 mM NaCl, and 1 mM TCEP.
35 μL of the reaction volume was transferred to a 384-well streptavidin FlashPlate (PerkinElmer) using a Bravo liquid handler (Velocity 11) and incubated for 1.5 hr at RT. […] Data were analyzed in Genedata to determine inhibitor IC50 values.

Sequence of p300 HAT domain (residues 1287-1666) (Q09472 1287-1666): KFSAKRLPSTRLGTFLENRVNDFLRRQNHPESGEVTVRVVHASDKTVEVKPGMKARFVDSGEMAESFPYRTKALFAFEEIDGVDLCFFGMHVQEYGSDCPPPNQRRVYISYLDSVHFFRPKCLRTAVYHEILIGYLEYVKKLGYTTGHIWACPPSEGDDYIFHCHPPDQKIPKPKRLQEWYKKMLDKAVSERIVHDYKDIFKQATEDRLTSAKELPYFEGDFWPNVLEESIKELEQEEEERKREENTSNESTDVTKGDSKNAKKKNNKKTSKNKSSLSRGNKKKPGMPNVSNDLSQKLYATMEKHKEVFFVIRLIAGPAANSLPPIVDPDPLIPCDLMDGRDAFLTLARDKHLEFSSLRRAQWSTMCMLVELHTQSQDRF

| Compound | IC50 [nM] |
| --- | --- |
| COCCn1cc(C(=O)C(NCCc2ccc(Cl)cc2)c2ccccc2)c2ccccc21 (single isomer, unassigned) [127 Isomer 1] | > 60000 |
| O=C(c1cn(CCO)c2ccccc12)C(NCCc1ccc(Cl)cc1)c1ccccc1 (single isomer, unassigned) [128 Isomer 1] | 42100 |
| O=C(c1cn(CCO)c2ccccc12)C(NCCc1ccc(Cl)cc1)c1ccccc1 (single isomer, unassigned) [128 Isomer 2] | 13400 |
| CCn1cc(C(=O)C(NCCc2ccc(Cl)cc2)c2ccccc2)c2ccccc21 (single isomer, unassigned) [129 Isomer 1] | 11800 |
| CCn1cc(C(=O)C(NCCc2ccc(Cl)cc2)c2ccccc2)c2ccccc21 (single isomer, unassigned) [129 Isomer 2] | 1810 |
| O=C(c1cn(CC(F)(F)F)c2ccccc12)C(NCCc1ccc(Cl)cc1)c1ccccc1 (single isomer, unassigned) [130 Isomer 1] | > 60000 |

same assay, conditions: p300 HAT domain; average of at least 2 replicate titrations; read-out: P300 HAT SPA IC50

| Compound | IC50 [nM] |
| --- | --- |
| CC(Cc1ccc(Cl)cc1)NC(C(=O)c1c[nH]c2cc(-c3cnn(C)c3)ccc12)c1ccccc1 (single isomer, unassigned) [92 Isomer 4] | 2220 |
| N#Cc1ccc(CCNC(C(=O)c2c[nH]c3cc(-c4cnn(CCO)c4)ccc23)c2ccccc2)cc1 (single isomer, unassigned) [95 Isomer 1] | 816 |
| COCCn1cc(-c2ccc3c(C(=O)C(NCCc4ccc(C#N)cc4)c4ccccc4)c[nH]c3c2)cn1 (single isomer, unassigned) [96 Isomer 1] | 182 |
| N#Cc1ccc(CCNC(C(=O)c2c[nH]c3cc(-c4cn[nH]c4)ccc23)c2ccccc2)cc1 (single isomer, unassigned) [98 Isomer 1] | 493 |
| N#Cc1ccc(CCNC(C(=O)c2cnn3cc(-c4cn[nH]c4)ccc23)c2ccccc2)cc1 (single isomer, unassigned) [99 Isomer 1] | 212 |
| Cn1cc(-c2ccc3c(C(=O)C(NCCc4ccc(S(N)(=O)=O)cc4)c4ccccc4)cnn3c2)cn1 (single isomer, unassigned) [101 Isomer 1] | 166 |
| CC(CNC(C(=O)c1cnn2cc(-c3cnn(C)c3)ccc12)c1ccccc1)c1ccc(C#N)cc1 (single isomer, unassigned) [102 Isomer 1] | 1880 |
| CC(CNC(C(=O)c1cnn2cc(-c3cnn(C)c3)ccc12)c1ccccc1)c1ccc(C#N)cc1 (single isomer, unassigned) [102 Isomer 2] | 239 |
| CC(CNC(C(=O)c1cnn2cc(-c3cnn(C)c3)ccc12)c1ccccc1)c1ccc(C#N)cc1 (single isomer, unassigned) [102 Isomer 3] | 212 |
| Cn1cc(-c2ccc3c(C(=O)C(NCCc4ccc(C#N)cc4)c4ccccc4)c[nH]c3c2F)cn1 (single isomer, unassigned) [103 Isomer 1] | 3410 |
| Cn1cc(-c2ccc3c(C(=O)C(NCCc4ccc(Cl)cc4)c4ccccc4)c[nH]c3c2)nn1 (single isomer, unassigned) [104 Isomer 1] | > 5000 |
| Cn1cc(-c2ccc3c(C(=O)C(NCCc4ccc(Cl)cc4)c4ccccc4)c[nH]c3c2)nn1 (single isomer, unassigned) [104 Isomer 2] | 388 |
| O=C(c1c[nH]c2cc(-c3ccccn3)ccc12)C(NCCc1ccc(F)cc1)c1ccccc1 (single isomer, unassigned) [105 Isomer 1] | > 30000 |
| Cn1cnc(-c2ccc3c(C(=O)C(NCCc4ccc(Cl)cc4)c4ccccc4)c[nH]c3c2)c1 (single isomer, unassigned) [106 Isomer 1] | 755 |
| Cn1cnc(-c2ccc3c(C(=O)C(NCCc4ccc(Cl)cc4)c4ccccc4)c[nH]c3c2)c1 (single isomer, unassigned) [106 Isomer 2] | 283 |
| Cc1nnc(-c2ccc3c(C(=O)C(NCCc4ccc(Cl)cc4)c4ccccc4)c[nH]c3c2)o1 (single isomer, unassigned) [107 Isomer 1] | 1900 |
| Cc1nnc(-c2ccc3c(C(=O)C(NCCc4ccc(Cl)cc4)c4ccccc4)c[nH]c3c2)o1 (single isomer, unassigned) [107 Isomer 2] | 3280 |
| O=C(c1c[nH]c2cc(-c3ccccn3)ccc12)C(NCCc1ccc(Cl)cc1)c1ccccc1 (single isomer, unassigned) [108 Isomer 2] | 2640 |
| Cc1cnc(-c2ccc3c(C(=O)C(NCCc4ccc(Cl)cc4)c4ccccc4)c[nH]c3c2)[nH]1 (single isomer, unassigned) [109 Isomer 1] | 2660 |
| Cc1ncc(-c2ccc3c(C(=O)C(NCCc4ccc(Cl)cc4)c4ccccc4)c[nH]c3c2)[nH]1 (single isomer, unassigned) [110 Isomer 1] | 2010 |
| O=C(c1c[nH]c2cc(-c3ccncn3)ccc12)C(NCCc1ccc(Cl)cc1)c1ccccc1 (single isomer, unassigned) [111 Isomer 1] | 1150 |
| O=C(c1c[nH]c2cc(-c3ccncn3)ccc12)C(NCCc1ccc(Cl)cc1)c1ccccc1 (single isomer, unassigned) [111 Isomer 2] | 556 |
| O=C(c1c[nH]c2cc(-c3cccnn3)ccc12)C(NCCc1ccc(Cl)cc1)c1ccccc1 (single isomer, unassigned) [112 Isomer 1] | 2030 |
| Cn1cnc(-c2ccc3c(C(=O)C(NCCc4ccc(C#N)cc4)c4ccccc4)c[nH]c3c2)c1 (single isomer, unassigned) [113 Isomer 1] | 1110 |
| Cn1cc(-c2ccc3c(C(=O)C(NCCc4ccc(C#N)cc4)c4ccccc4)c[nH]c3c2)nn1 (single isomer, unassigned) [114 Isomer 1] | 558 |
| Cn1cnc(-c2ccc3c(C(=O)C(NCCc4ccc(S(N)(=O)=O)cc4)c4ccccc4)c[nH]c3c2)c1 (single isomer, unassigned) [115 Isomer 1] | 1490 |
| Cn1cc(-c2ccc3c(C(=O)C(NCCc4ccc(S(N)(=O)=O)cc4)c4ccccc4)c[nH]c3c2)nn1 (single isomer, unassigned) [116 Isomer 1] | > 5000 |
| O=C(c1c[nH]c2cc(-n3ccnc3)ccc12)C(NCCc1ccc(F)cc1)c1ccccc1 (single isomer, unassigned) [117 Isomer 2] | > 30000 |
| O=C(c1c[nH]c2cc(-n3cccn3)ccc12)C(NCCc1ccc(F)cc1)c1ccccc1 (single isomer, unassigned) [118 Isomer 1] | > 30000 |

The next lines start with the values.

| IC50 [nM] | Compound |
| --- | --- |
| > 5000 | NS(=O)(=O)c1ccc(CCNC(C(=O)c2c[nH]c3cc(-n4ccnc4)ccc23)c2ccccc2)cc1 (single isomer, unassigned) [119 Isomer 1] |
| 2200 | CN1CCN(c2ccc3c(C(=O)C(NCCc4ccc(C#N)cc4)c4ccccc4)c[nH]c3n2)CC1 (single isomer, unassigned) [121 Isomer 1] |
| 325 | CN1CCN(c2ccc3c(C(=O)C(NCCc4ccc(C#N)cc4)c4ccccc4)c[nH]c3c2)CC1 (single isomer, unassigned) [122 Isomer 1] |
| 7610 | CN1CCN(c2ccc3c(C(=O)C(NCCc4ccc(F)cc4)c4ccccc4)c[nH]c3c2)CC1 (single isomer, unassigned) [123 Isomer 1] |
| > 5000 | CN1CCN(c2ccc3c(C(=O)C(NCCc4ccc(S(N)(=O)=O)cc4)c4ccccc4)c[nH]c3c2)CC1 (single isomer, unassigned) [124 Isomer 1] |
| > 2000 | N#Cc1ccc(CCNC(C(=O)c2c[nH]c3cc(N4CCCC4)ccc23)c2ccccc2)cc1 (single isomer, unassigned) [125 Isomer 1] |
| 224 | N#Cc1ccc(CCNC(C(=O)c2c[nH]c3cc(N4CCCC4)ccc23)c2ccccc2)cc1 (single isomer, unassigned) [125 Isomer 2] |
| 2840 | CN1CCC(Oc2ccc3c(C(=O)C(NCCc4ccc(C#N)cc4)c4ccccc4)c[nH]c3c2)CC1 (single isomer, unassigned) [126 Isomer 1] |
| > 30000 | CNC(=O)c1ccc(CCN[C@H](C(=O)c2c[nH]c3cc(-c4cnn(C)c4)ccc23)c2ccccc2)cc1 (single isomer, unassigned) [131 Isomer 1] |
| 17900 | O=C(O)c1ccc(CCNC(C(=O)c2c[nH]c3ccccc23)c2ccccc2)cc1 (single isomer, unassigned) [132 Isomer 2] |
| 22900 | NC(=O)c1ccc(CCNC(C(=O)c2c[nH]c3ccccc23)c2ccccc2)cc1 (single isomer, unassigned) [133 Isomer 1] |
| > 60000 | CNC(=O)c1ccc(CCNC(C(=O)c2c[nH]c3ccccc23)c2ccccc2)cc1 (single isomer, unassigned) [134 Isomer 1] |
| > 60000 | CN(C)C(=O)c1ccc(CCNC(C(=O)c2c[nH]c3ccccc23)c2ccccc2)cc1 (single isomer, unassigned) [135 Isomer 1] |
| 8690 | CNC(=O)Cc1ccc(CCNC(C(=O)c2c[nH]c3ccccc23)c2ccccc2)cc1 (single isomer, unassigned) [136 Isomer 1] |
| > 60000 | CNC(=O)Cc1ccc(CCNC(C(=O)c2c[nH]c3ccccc23)c2ccccc2)cc1 (single isomer, unassigned) [136 Isomer 2] |
| 21800 | CN(C)C(=O)Cc1ccc(CCNC(C(=O)c2c[nH]c3ccccc23)c2ccccc2)cc1 (single isomer, unassigned) [137 Isomer 1] |
| > 60000 | CN(C)C(=O)Cc1ccc(CCNC(C(=O)c2c[nH]c3ccccc23)c2ccccc2)cc1 (single isomer, unassigned) [137 Isomer 2] |

same assay, conditions: read-out: P300 HAT SPA IC50; p300 HAT domain; average of at least 2 replicate titrations

| Compound | IC50 [nM] |
| --- | --- |
| COCCn1cc(C(=O)C(NCCc2ccc(Cl)cc2)c2ccccc2)c2ccccc21 (single isomer, unassigned) [127 Isomer 2] | > 60000 |
| O=C(c1cn(CC(F)(F)F)c2ccccc12)C(NCCc1ccc(Cl)cc1)c1ccccc1 (single isomer, unassigned) [130 Isomer 2] | > 60000 |
